# According to a melting point compilation (Tetko et al.; mined from patent text by program, amines drawn as free bases though some values may be those of a salt):
row,Compound,melting point [°C]
1,BrCc1cc(CBr)cc(CBr)c1,95.5 to 97.5
2,CCNC(=O)c1ccc2ccc(OC)cc2c1OC(C)C,78 to 79
3,CCOC(=O)c1nc2c(=O)[nH]c3cc(C(F)(F)F)ccc3n2c1C,> 250
4,Cc1cccc2c(-c3ccc(Cl)cc3)onc12,134 to 136
5,COCCNC(=O)c1cccc(-c2cccc3cc(Cc4cccc(C(C)=O)c4)sc23)c1,81 to 82
6,O=C(Nc1ccccc1)ONC1=Nc2ccc([N+](=O)[O-])cc2C(c2ccccc2Cl)=NC1,201 to 203
7,Cc1cncn1CC#CCN1CCCC1=O,194 to 197
8,O=C(NC(=O)C(c1ccccc1)c1ccccc1)OCCN1CCOCC1,135 to 137
9,O=P1(O)Oc2ccccc2-c2cc(F)ccc21,240
10,N#Cc1sc(C#N)c(Br)c1Br,138 to 139
11,CN(C(=O)OCc1ccccc1)[C@@H](CCC(=O)O)C(=O)O,97 to 98
12,CCCCN(CCCC)C(=S)C(=S)N(CCCC)CCCC,35 to 38
13,COc1ccc(-c2c(-c3ccccc3)nc3n2CCS3)cc1OC,176 to 178
14,CC(C)(O)C#Cc1ncn2c1[C@@H]1CCCN1C(=O)c1c(Br)cccc1-2,227 to 228
15,CCOC(=O)Cn1c(-c2ccccc2Cl)nc2cccnc21,64 to 66
16,O=C(Oc1ccccc1)OC1c2nccnc2C(=O)N1c1ccc2ccc(Cl)nc2n1 (centres undefined),270
17,Cc1cn2c(nc1=O)CCC2,82
18,COC(=O)c1ccc2c(c1CBr)OCO2,56 to 58
19,O=[N+]([O-])c1ccc2c(c1)C(c1ccccn1)=CC(C(F)(F)F)(C(F)(F)F)O2,105 to 107
20,C=C(Sc1ccc(Br)cc1)S(=O)(=O)c1cccc([N+](=O)[O-])c1,109 to 111
21,CC1Cc2c(n(Cc3ccc(Cl)cc3)c3ccc(F)cc23)C(CC(=O)O)C1 (centres undefined),205 to 206
22,O=C(Nc1cccc2c1ncc1c(=O)[nH]cnc12)c1c(Cl)cccc1Cl,> 250
23,OC1CSC(Sc2ccc(C(F)(F)F)cc2)C(O)C1O (centres undefined),128 to 130
24,CCOC(=O)c1ccc(C(=O)O)c2c([N+](=O)[O-])cccc12,178 to 180
25,c1ccc(OCCSCc2nnc(-c3ccc(OCCCCN4CCOCC4)cc3)o2)cc1,64 to 67

row,Compound,melting point [°C]
1,Clc1nc2ncnn2c(NC2CCCC2)c1-c1ccsc1,78
2,O=C(NCC1CCN(CC2(C(=O)O)CCOCC2)CC1)N1C(=O)C2(CCCC2)c2ccc(F)cc21,129
3,COc1ccc(-n2cc(C3(O)CN4CCC3CC4)nn2)cc1 (centres undefined),174
4,CNS(=O)(=O)Oc1ccccc1OC,68 to 71
5,CC(C)(C)n1ncc(C(N)=O)c1N,193 to 195
6,CCSC(c1ccc(Cl)cc1Cl)C(C(=O)C(C)(C)CF)n1cncn1 (centres undefined),130
7,Clc1cc(Cl)c2nccc(Br)c2c1,164 to 166
8,Cc1cccc(C)c1Nc1nc(-c2nc3ccc(C(F)(F)F)cc3[nH]2)cs1,250 to 251
9,Cc1ccc(COC(=O)CCC2CCC(=O)N2)cc1 (centres undefined),71 to 72
10,Cc1cc2ccccc2c(Oc2ccc(/C=C/C(=O)O)cc2)c1-c1ccccc1,224 to 225
11,Cc1c(C(F)(F)F)nc2c(C(F)(F)F)cccc2c1Br,81.9 to 82.3
12,c1ccc(CNCc2n[nH]c(-c3ccc(CN4CCCCCC4)s3)n2)cc1,155 to 157
13,O=C(CN1CC(S(=O)Cc2ccc(C(=O)O)cc2)C1=O)NCCCCCCc1ccc(Cl)cc1 (centres undefined),195 to 197
14,COc1ccc(C2=NNC(=O)CC2c2ccc(OC)c(F)c2)cc1F (centres undefined),196 to 198
15,NC(=O)[C@H]1CCCN1C(c1ccccc1)(c1ccccc1)c1ccccc1,162
16,CCOC(=O)/C=C\C=C(c1ccccc1)c1ccccc1,34 to 35
17,CCOC(=O)C1(NS(=O)(=O)c2ccc3c(Cl)cnc(NC(=N)N)c3c2)CCC1,165 to 169
18,Cc1cc(O)ccc1-c1ccc(N)cc1,156 to 157
19,N=C(NCc1cnc(Cl)s1)N[N+](=O)[O-],160 to 162
20,NNC(=O)c1ncn2ccccc12,189
21,Cc1cccc(Nc2ccc(-c3ccccc3)cc2)c1,95
22,COc1ccc(C(=O)Cc2ccc(Br)cc2)c(Cl)c1Cl,163 to 164
23,CCO[C@@H]1c2ccn3c(C)c(C)nc3c2N[C@H](c2ccccc2)[C@H]1O,143 to 144
24,C=CCN1C(=O)CN(c2ccc(Cc3ccccc3)cc2)C1=S,132
25,CCOC(=O)Cc1nc(-c2ccccc2)n(C)n1,82 to 83

row,Compound,melting point [°C]
1,CC(CCC(=O)O)C1CCC2C3C(O)CC4CC(NC(=O)CNC(=O)OC(C)(C)C)CCC4(C)C3CC(O)C12C (centres undefined),150 to 155
2,C=CCN(C(=O)OCc1ccccc1)c1cc(F)c(-c2cccnc2)c(F)c1,92 to 93
3,CCOC(=O)c1cn(CCCO)c(=O)c2cc(Cl)ccc12,193
4,Cc1nc2cccc(C)c2c(=O)[nH]1,255 to 257
5,CCCCCCCCCCCCCCCC(=O)OC(CCCCCCCCCCCCCC)C(=O)N[C@H](C(=O)N[C@@H](CCC(=O)O)C(=O)O)C(C)C (some centres undefined),101 to 103
6,C[C@H](c1ccccc1)n1c(=O)c2c(Cl)cc(Cl)cc2n(Cc2ccccc2)c1=O,93 to 97
7,CC(C)(O)c1cnn2c(-c3ccc(F)c(-c4ccccc4C#N)c3)cnc2n1,187
8,CCN1CCc2ccc(Nc3ncc(C#N)c(Nc4ccccc4C(=O)NC)n3)cc2CC1,164 to 170
9,O=S(=O)(Nc1ccc2ccc(OCc3ccc4ccccc4n3)cc2c1)C(F)(F)F,172 to 175
10,Fc1ccc(-c2ccn(C3CCNC3)c2-c2ccncc2)cc1 (centres undefined),145 to 147
11,CC(=O)OCC1CC(n2c(=S)[nH]c3cc(Cl)c(Cl)cc32)C(OC(C)=O)C1OC(C)=O (centres undefined),208 to 209
12,CCOC(=O)C(C)(C)NC(=O)c1cccc(C2=NC(C)(C)Cc3c(CC#N)c(OC)c4c(c32)CC(C)(C)O4)c1,126 to 128
13,CSCCCc1cc(F)c2ncc(C(=O)NCc3ccc(Cl)cc3)c(O)c2c1,178 to 180
14,CC(=O)NC(Cc1ccc(OCCc2nc(-c3ccccc3)oc2C)cc1)C(N)=O (centres undefined),224 to 226
15,COC(=O)Nc1c(Cl)ccc(Br)c1F,107 to 112
16,CCOC(=O)C(=CNc1ccc(C2=NNC(=O)CC2)cc1)C(=O)OCC,164
17,CC(C)Nc1nc2c(Cl)cc(Cl)cc2n1[C@H]1O[C@@H](CO)[C@H](O)[C@@H]1O,212 to 214
18,N#CC1=C2C(=NC1=O)c1c(Sc3ccc(Br)cc3)ccc3c(Sc4ccc(Br)cc4)ccc2c13,262 to 263
19,O=C(O)c1cc(F)c(O)nc1Nc1ccc(F)cc1,216 to 217
20,COc1ncc(NS(=O)(=O)c2cccc3c(N(C)C)cccc23)c(OC)n1,201
21,CCOC(=O)/C=C(C)/C=C/C=C(\C)C1=Cc2cc(Cl)cc(C)c2OC1,107
22,O=S(=O)(c1ccccc1)c1ncc(C(F)(F)F)cc1F,82 to 83
23,Oc1ccccc1-c1cc(-c2ccc3c(c2)OCO3)cc(-c2ccsc2)n1,120 to 121
24,COc1ccc([C@]2(C)CNC(=O)O2)cc1OC1CCC1,132
